The structures appear in SMILES notation.

One may read the IC50 as the point on the concentration scale where inhibition reaches its midpoint.

The target of this experiment is T1, cPLA2 (Homo sapiens, UniProt P47712).
T1 sequence (P47712 1-749): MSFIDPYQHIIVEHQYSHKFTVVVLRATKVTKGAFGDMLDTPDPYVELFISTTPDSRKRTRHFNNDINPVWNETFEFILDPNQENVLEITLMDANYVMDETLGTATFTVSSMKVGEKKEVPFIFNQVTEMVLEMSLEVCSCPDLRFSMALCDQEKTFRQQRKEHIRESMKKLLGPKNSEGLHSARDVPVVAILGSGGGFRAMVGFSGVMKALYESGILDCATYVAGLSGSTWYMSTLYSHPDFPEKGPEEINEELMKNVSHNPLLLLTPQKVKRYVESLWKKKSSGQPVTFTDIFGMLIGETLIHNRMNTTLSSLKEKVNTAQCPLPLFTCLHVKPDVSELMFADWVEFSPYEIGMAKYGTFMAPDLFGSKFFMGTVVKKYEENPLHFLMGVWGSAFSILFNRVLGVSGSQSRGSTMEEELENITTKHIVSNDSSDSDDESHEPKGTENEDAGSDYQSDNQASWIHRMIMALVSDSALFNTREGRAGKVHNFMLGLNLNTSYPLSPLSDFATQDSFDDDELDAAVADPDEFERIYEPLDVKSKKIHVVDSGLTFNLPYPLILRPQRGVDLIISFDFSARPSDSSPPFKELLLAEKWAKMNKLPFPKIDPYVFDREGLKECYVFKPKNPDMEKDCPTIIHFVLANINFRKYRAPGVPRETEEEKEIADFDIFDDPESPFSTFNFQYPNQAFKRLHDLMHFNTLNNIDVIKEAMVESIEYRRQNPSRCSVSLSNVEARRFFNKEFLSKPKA
Briefly: Coumarine Assay. The note with it: 60 μM 7-hydroxycoumarinyl 6-heptenoate substrate, 4 μg cPLA2, pH 7.5, fluorescence ex 360 nm / em 460 nm; read-out: Coumarin IC50. Format: biochemical.
Method: Inhibitors were mixed with 200 μL assay buffer (80 mM Heped, pH 7.5, 1 mM EDTA) containing 60 μM 7-hydroxycoumarinyl 6-heptenoate. The reaction was initiated by adding 4 μg cPLA2 in 50 μL assay buffer. Hydrolysis of the 7-hydroxycounarimyl 6-heptenoate ester was monitored in a fluorometer by exciting at 360 nm and monitoring emission at 460 nm. Enzyme activity is proportional to the increase in emission at 460 nm per minute. In the presence of a cPLA2 inhibitor, the rate of increase is less.
With `C[C@@H]1CCC[C@H](C)N1CCS(=O)(=O)NCCc1c(CCOc2ccc(C(=O)O)cc2)c2cc(Cl)ccc2n1C(c1ccccc1)c1ccccc1` [Example 96, 4-[2-(1-benzhydryl-5-chloro-2-{2-[({2-[(2R,6S)-2,6-dimethyl-1-piperidinyl]ethyl}sulfonyl)amino]ethyl}-1H-indol-3-yl)ethoxy]benzoic acid], the IC50 came out at 950 nM.

As for `O=C(O)c1ccc(OCCc2c(CCNS(=O)(=O)CCN3CCNC3=S)n(C(c3ccccc3)c3ccccc3)c3ccc(Cl)cc23)cc1` [Example 97, 4-(2-{1-benzhydryl-5-chloro-2-[2-({[2-(2-thioxo-1-imidazolidinyl)ethyl]sulfonyl}amino)ethyl]-1H-indol-3-yl}ethoxy)benzoic acid], the IC50 came to 950 nM.

With `O=C(O)c1ccc(CCCc2c(CCNS(=O)(=O)CCN3CCOCC3)n(C(c3ccccc3)c3ccccc3)c3ccc(Cl)cc23)cc1` [Example 100, 4-(3-{1-Benzhydryl-5-chloro-2-[2-(2-morpholin-4-yl-ethanesulfonylamino)-ethyl]-1H-indol-3-yl}-propyl)-benzoic acid], the half-inhibitory concentration (IC50) is 120 nM.

As to `CC1CCCC(C)N1CCS(=O)(=O)NCCc1c(CCCc2ccc(C(=O)O)cc2)c2cc(Cl)ccc2n1C(c1ccccc1)c1ccccc1` (stereo not drawn) [Example 101, 4-[3-(1-Benzhydryl-5-chloro-2-{2-[2-(2,6-dimethyl-piperidin-1-yl)-ethanesulfonylamino]-ethyl}-1H-indol-3-yl)-propyl]-benzoic acid], the IC50 came out at 100 nM.

`Cc1cc(C)n(CCS(=O)(=O)NCCc2c(CCCc3ccc(C(=O)O)cc3)c3cc(Cl)ccc3n2C(c2ccccc2)c2ccccc2)n1` [Example 102]: the IC50 worked out at 190 nM.

For the molecule `O=C(O)c1ccc(OCCc2c(CCNS(=O)(=O)CCn3ncnn3)n(C(c3ccccc3)c3ccccc3)c3ccc(Cl)cc23)cc1` [Example 103, 4-(2-{1-benzhydryl-5-chloro-2-[2-(2-tetrazol-2-yl-ethanesulfonylamino)-ethyl]-1H-indol-3-yl}ethoxy)benzoic acid], the IC50 is 1100 nM.

As to `O=C(O)c1ccc(OCCc2c(CCNS(=O)(=O)CCn3cnnn3)n(C(c3ccccc3)c3ccccc3)c3ccc(Cl)cc23)cc1` [Example 104, 4-(2-{1-benzhydryl-5-chloro-2-[2-(2-tetrazol-1-yl-ethanesulfonylamino)-ethyl]-1H-indol-3-yl}ethoxy)benzoic acid], the IC50 was determined as 1100 nM.

Take `O=C(O)c1ccc(OCCc2c(CCNS(=O)(=O)Cc3ccc(Cl)c(Cl)c3)n(C(c3ccccc3)c3ccccc3)c3cc(Cl)ccc23)cc1` [Example 106, 4-(2-{1 -Benzhydryl-6-chloro-2-[2-(3,4-dichloro-phenylmethanesulfonylamino)-ethyl]-1H-indol-3-yl}-ethoxy)-benzoic acid]: the IC50 was determined as 220 nM.

Take `O=C(O)c1ccc(OCCc2c(CCNS(=O)(=O)Cc3cc(Cl)cc(Cl)c3)n(C(c3ccccc3)c3ccccc3)c3cc(Cl)ccc23)cc1` [Example 107, 4-[2-{1-Benzhydryl-6-chloro-2-[2-(3,5-dichloro-phenylmethanesulfonylamino)-ethyl]-1H-indol-3-yl}-ethoxy)-benzoic acid]: the IC50 turned out to be 330 nM.

Take `N#Cc1ccccc1CS(=O)(=O)NCCc1c(CCOc2ccc(C(=O)O)cc2)c2cc(Cl)ccc2n1C(c1ccccc1)c1ccccc1` [Example 108, 4-{2-[1-Benzhydryl-5-chloro-2-(2-{[(2-cyanobenzyl)sulfonyl]amino}ethyl)-1H-indol-3-yl]ethoxy}benzoic acid]: the IC50 worked out at 150 nM.

Regarding `O=C(O)c1ccc(OCCc2c(CCNS(=O)(=O)CC3CCCCO3)n(C(c3ccccc3)c3ccccc3)c3ccc(Cl)cc23)cc1` (stereo not drawn) [Example 109, 4-{2-[1-Benzhydryl-5-chloro-2-(2-{[(tetrahydro-2H-pyran-2-ylmethyl)sulfonyl]amino}ethyl)-1H-indol-3-yl]ethoxy}benzoic acid], the IC50 worked out at 400 nM.

In the case of `O=C(O)c1ccc(OCCc2c(CCNS(=O)(=O)Cc3nc4ccccc4o3)n(C(c3ccccc3)c3ccccc3)c3ccc(Cl)cc23)cc1` [Example 110, 4-{2-[1-Benzhydryl-2-(2-{[(1,3-benzoxazol-2-ylmethyl)sulfonyl]amino}ethyl)-5-chloro-1H-indol-3-yl]ethoxy}benzoic acid], the IC50 is 500 nM.

Consider `O=C(O)c1ccc(OCCc2c(CCNS(=O)(=O)Cc3ccsc3)n(C(c3ccccc3)c3ccccc3)c3ccc(Cl)cc23)cc1` [Example 112, 4-{2-[1-Benzhydryl-5-chloro-2-(2-{[(3-thienylmethyl)sulfonyl]amino}ethyl)-1H-indol-3-yl]ethoxy}benzoic acid], for which the IC50 turned out to be 1200 nM.

With `CC1CCCN1CCS(=O)(=O)NCCc1c(CCOc2ccc(C(=O)O)cc2)c2cc(Cl)ccc2n1C(c1ccccc1)c1ccccc1` (stereo not drawn) [Example 113, 4-[2-(1-Benzhydryl-5-chloro-2-{2-[2-(2-methyl-pyrrolidin-1-yl)-ethanesulfonylamino]-ethyl}-1H-indol-3-yl)-ethoxy]-benzoic acid], the IC50 was determined as 1300 nM.

Take `CC1CCCCN1CCS(=O)(=O)NCCc1c(CCOc2ccc(C(=O)O)cc2)c2cc(Cl)ccc2n1C(c1ccccc1)c1ccccc1` (stereo not drawn) [Example 114, 4-[2-(1-Benzhydryl-5-chloro-2-{2-[2-(2-methyl-piperidin-1-yl)-ethanesulfonylamino]-ethyl}-1H-indol-3-yl)-ethoxy]-benzoic acid]: the concentration for half-maximal inhibition (IC50) amounted to 1100 nM.

For the molecule `CC1CCC(C)N1CCS(=O)(=O)NCCc1c(CCOc2ccc(C(=O)O)cc2)c2cc(Cl)ccc2n1C(c1ccccc1)c1ccccc1` (stereo not drawn) [Example 115, 4-[2-(1-Benzhydryl-5-chloro-2-{2-[2-(2,5-dimethyl-pyrrolidin-1-yl)-ethanesulfonylamino]-ethyl}-1H-indol-3-yl)-ethoxy]-benzoic acid], the IC50 was determined as 900 nM.

On to `O=C(O)c1ccc(OCCc2c(CCNS(=O)(=O)CCN3CCCCC3)n(C(c3ccccc3)c3ccccc3)c3ccc(Cl)cc23)cc1` [Example 117], for which the IC50 turned out to be 1600 nM.

Turning to `Cc1ccccc1SCS(=O)(=O)NCCc1c(CCOc2ccc(C(=O)O)cc2)c2cc(Cl)ccc2n1C(c1ccccc1)c1ccccc1` [Example 118, 4-{2-[1-benzhydryl-5-chloro-2-(2-o-tolylsulfanylmethanesulfonylamino-ethyl)-1H-indol-3-yl]-ethoxy}-benzoic acid], the IC50 came out at 400 nM.

On to `O=C(O)c1ccc(OCCc2c(CCNS(=O)(=O)CSc3ccccc3Cl)n(C(c3ccccc3)c3ccccc3)c3ccc(Cl)cc23)cc1` [Example 119], for which the IC50 stood at 400 nM.

For `O=C(O)c1ccc(OCCc2c(CCNS(=O)(=O)CSc3c(Cl)cccc3Cl)n(C(c3ccccc3)c3ccccc3)c3ccc(Cl)cc23)cc1` [Example 120, 4-(2-{1-benzhydryl-5-chloro-2-[2-(2,6-dichloro-phenylsulfanylmethanesulfonylamino)-ethyl]-1H-indol-3-yl}-ethoxy)-benzoic acid], the IC50 was 400 nM.

Turning to `COc1ccc(OC)c(SCS(=O)(=O)NCCc2c(CCOc3ccc(C(=O)O)cc3)c3cc(Cl)ccc3n2C(c2ccccc2)c2ccccc2)c1` [Example 121, 4-(2-{1-benzhydryl-5-chloro-2-[2-(2,5-dimethoxy-phenylsulfanylmethanesulfonylamino)-ethyl]-1H-indol-3-yl}-ethoxy)-benzoic acid], the IC50 worked out at 460 nM.

The record behind these values is patent publication US6635771B2, “N-benzhydryl indole compounds” (Wyeth, priority 2001, dated 2003).
